Results: US9517221B2, “(2R)-2-propyloctanoic acid for functional brain disease” (ONO PHARMACEUTICAL CO., LTD., priority 2006, dated 2016)

Columns and labels:
Format in all cases: in vivo, rat
[1] = test system: olfactory bulbectomized rats; assay: Influence upon anxiolytic behavior on an elevated plus maze in olfactory bulbectomized rats (Test Example 4-3); settings: once a day for 8 days; test 2 hours after administration; present tense
Source text: Wistar male rats are used in the test. By fixing the head of each rat under pentobarbital sodium anesthesia to a brain stereotaxic apparatus, the head skin is incised and then holes are opened at right and left olfactory bulb regions using a dental drill to suck and remove the right and left olfactory bulbs using an aspirator. The head skin is stitched thereafter. In this connection, the suction and removal of olfactory bulbs are not carried out in the sham-operation group, and the head skin is stitched after opening holes at right and left olfactory bulb regions. […]
An elevated plus maze apparatus consisting of a open arm without a wall and a closed arm having a wall is used in the test. […] The anxiolytic behavior is analyzed from the pictures of a video camera by a video picture behavior analysis device.
The vehicle and test drug are repeatedly administered once a day for 8 days. […] After 2 hours of the administration, the animal is softly put on the platform toward one of the open arms and measured for 5 minutes. […] The items (1) to (6) shown below are measured using the video picture behavior analysis device, and (7) and (8) are counted after completion of the measurement. […]

SD rats = assay: Water-immersion stress-loaded elevated plus maze test (Test Example 1); settings: oral, 1 hour before test, written in present tense
Protocol: Two open arms of the same length (50×10 cm) and two closed arms of the same length (50×10 cm) (a wall of 30 cm is set) are set crossing at a right angle at a height of 50 cm from the floor and used as an elevated plus maze apparatus. Constant lighting is effected by attaching white lights to 70 cm over both of the open arms.
Using a pool (40×30×38 cm) charged with water of 22° C. to a depth of 25 cm, 120 seconds of forced swimming is loaded on SD rats of 7 weeks of age (Charles River Japan). After 9 minutes of the water-immersion stress-loading, the rats are allowed to stand still on a central part of the apparatus, and the behavior of the rats are analyzed for 5 minutes by an automatic behavior tracing analysis system (EthoVision Version 3.0, Noldus Information Technology) to calculate its staying time (second) on the open arms.
In this connection, rats of the control group are not subjected to the water-immersion stress-loading. Also, a vehicle is orally administered to the vehicle treating group 1 hour before the commencement of the test, and a test drug of various concentrations is administered to the test drug treating group.

[2] = test system: olfactory bulbectomized rats; assay: Anxiolytic behavior on elevated plus maze of olfactory bulbectomized rats; settings: for Time (seconds) stayed on closed arm (mean ± S. E.) / Time (seconds) stayed on open arm (mean ± S. E.): 5 minutes test 1 hour after 8 days administration
Protocol: SPF rats (Crlj: WI) were used in the test. The animal for olfactory bulbectomy was anesthetized with pentobarbital sodium (Nembutal R Injection, Dainippon Pharmaceutical, dose: 1 mL/kg (intraperitoneal administration)), and the head was fixed using a brain stereotaxic apparatus (ASI Instruments, Inc., NARISHIGE). After incising the head skin, holes are opened at right and left olfactory bulb regions of the skull using a dental drill (manufactured by […]), and the right and left olfactory bulbs were removed by sucking them using an aspirator connected to a tip-removed oral sonde, and the head skin was stitched thereafter. In this connection, in the case of the animals for sham-operation, anesthesia, brain fixation and head skin incision were carried out in the same manner as in the animals for olfactory bulbectomy, holes are opened at right and left olfactory bulb regions of the skull and the head skin was stitched without carrying out suction removal of the olfactory bulbs. The rats after olfactory bulbectomy were put into a series of five stainless steel cages, each of which was partitioned into two parts with an acrylic board for individual rearing space, and individually reared under a dark condition. The rats were subjected to the following tests of (2) and (3). • (a) Sham-operation group (12 animals); • (b) Vehicle control group (12 animals); • (c) 3 mg/kg administration group (12 animals) of (2R)-2-propyloctanoic acid; • (d) 10 mg/kg administration group (12 animals) of (2R)-2-propyloctanoic acid; • (e) 10 mg/kg administration group (12 animals) of Milnacipran hydrochloride. [Drug Administration] As shown below, drug solution or vehicle was administered once a day for 8 days, a total of 8 times, at a respective liquid dose of 5 mL/kg. • (a) Sham-operation group: vehicle (0.1% by volume Tween 80) aqueous solution; • (b) Vehicle control group: vehicle (0.1% by volume Tween 80) aqueous solution; • (c) 3 mg/kg administration group of (2R)-2-propyloctanoic acid: a drug solution in which (2R)-2-propyloctanoic acid was prepared to be 0.6 mg/mL with the vehicle; • (d) 10 mg/kg administration group of (2R)-2-propyloctanoic acid: a drug solution in which (2R)-2-propyloctanoic acid was prepared to be 2.0 mg/mL with the vehicle; • (e) 10 mg/kg administration group of milnacipran hydrochloride: a drug solution in which Milnacipran hydrochloride was prepared to be 2.3 mg/mL with the vehicle (Milnacipran itself is included in 2.0 mg/mL). (2) Examination of the Activity for Hyperemotional Reactivity <Evaluation Method> Evaluation of the anxiolytic behavior on an elevated plus maze was carried out once per animal for 5 minutes from 1 hour to 1 hour and 10 minutes after 8 days of the administration, in accordance with the following method. Each animal was softly put on a platform of elevated plus maze which is described later, toward one of the open arms. Thereafter, behavior of the animal was shot using a video camera (CCD-DC430, SONY) set up the elevated plus maze, and the images were analyzed by a video image behavior analyzing device (Etho Vision, manufactured by Noldus). Additionally, the images from the video camera were recorded and handled as reference data. In this connection, when the animal fell, it was regarded as staying on the open arm, and the animal was quickly returned to the place or the open arm where it was present just before the falling. The evaluation was carried out on the respective items shown by A to H (A: frequency of approach to the open arm, B: frequency of approach to the closed arm, C: frequency of approach to the platform, D: stayed time (second) on the open arm, E: stayed time (second) on the closed arm, F: stayed time (second) on the platform, G: defecation frequency on the open arm, platform and closed arm, and H: urination frequency on the open arm, platform and closed arm), by measuring A to F using the video image behavior analyzing device, and by measuring G and H after completion of the measurement. […]

[3] = dose 3 mg/kg once a day for 8 days
[4] = dose 10 mg/kg once a day for 8 days

## CCCCCC[C@@H](CCC)C(=O)O [(2R)-2-propyloctanoic acid]
[1]
  Anxiolytic behavior versus vehicle treating group: suppresses the anxiolytic behavior
SD rats
  Staying time on the open arms versus vehicle treating group: prolongs the staying time on the open arms
[2]; [3]
  Time (seconds) stayed on closed arm (mean ± S. E.): 188.7 ± 19.7 s
  Time (seconds) stayed on open arm (mean ± S. E.): 73.7 ± 17.5 s
[2]; [4]
  Time (seconds) stayed on closed arm (mean ± S. E.): 209.4 ± 24.1 s
  Time (seconds) stayed on open arm (mean ± S. E.): 57.7 ± 22.1 s
[2]; olfactory bulbectomized rats, elevated plus maze, result in words
  Anxiolytic behavior versus vehicle control group: inhibited the anxiolytic behavior
